Where a name gives a salt, the structure may show the parent alone. Read-outs that look alike come from different tables or passages of the source.
Tests used:
caspase-3 = assay: Caspase-3 (apoptosis) Assay; assay type: cell-based, human; settings: for Mean Apoptotic Index: mean Caspase-3 response (405 nm) ÷ mean ATP response × 10^8, mannitol 1 mg/ml, doxorubicin 1 μg/ml, MMS 50 μg/ml, phenformin 250 μg/ml
Method: The assay was carried out using the same cell containing sample(s) as the p53R2 Renilla Luciferase Reporter Gene, the Firefly Luciferase Bioluminescent ATP and the superoxide assays. Once again, all of the assays were performed in 96-well cluster plates. Activation of caspase-3 plays a central role in the execution-phase of apoptosis. Thus, the caspase-3 assay will provide useful information on the mechanism of cellular toxicity. Following SOD measurement, caspase-3 was measured on each cellular sample in accordance with the Caspase-3 Assay Kit manufacturer's instructions. Briefly, the colorimetric assay is based on the hydrolysis of the peptide substrate acetyl-Asp-Glu-Val-Asp p-nitroanilide (Ac-DEVD-pNA) by caspase-3, resulting in the release of the p-nitroaniline (pNA) moiety which can be measured at 405 nm.
For the assay, cellular sample lysates (5 μl) were added to a reaction mixture containing caspase-3 substrate (Ac-DEVD-pNA, 95 μl) and samples were incubated for 2 h at 37° C. Absorbance was measured at 405 nm using a 96-well microtitre plate reader.

p53R2 (RE) = test system: p53R2 (RE)
Method: Constructs were transiently transfected into human HEK 293 cells using a lipid-based commercially available reagent (FuGENE HD Transfection Reagent, Roche Applied Science). Transfections were carried out following the manufacturer's instructions. Briefly, freshly passaged cells (20,000/well) were dispensed into Greiner Bio-One tissue-culture treated μ-clear (clear base), white, sterile, 96-well cluster plates and incubated overnight (37° C., 95% humidity, 5% CO2) in antibiotic-free media. Cells were transfected (100 ng DNA/well; 5 μl transfection complex/well) with pGL4.70 [hRLuc], p53R2 (RE) pGL4.70 [hRLuc], pGL4.70 MinP [hRLuc], or p53R2 (RE) pGL4.70 MinP [hRLuc] for 24 h, in antibiotic-free media. Several FuGENE HD Transfection Reagent: DNA ratios (3:2-8:2 in the final complex) were evaluated in order to determine the optimal level of transient transfection.
Renilla luciferase activity was measured using the ViviRen Luciferase Live Cell Substrate following the Manufacturer's instructions. Briefly, the ViviRen substrate (60 mM; 20 μl) was diluted 1:50 with complete EMEM at room temperature. 10 μl was added to each culture well (to give a final concentration of 60 μM in each well containing cells to be tested). Microtitre plates were incubated for two minutes at room temperature before measuring luminescence on a Tecan Ultra (Tecan Corporation) in luminescence mode, integrating for 100 ms. Alternatively luminescence can be measured on a LEADseeker multi-modality instrument in luminescence mode (GE Healthcare).

superoxide dismutase = assay: Superoxide Dismutase (SOD) (Oxidative Stress) Assay; assay type: cell-based, human; settings: mean superoxide dismutase response (450 nm) ÷ mean ATP response × 10^7; HEK 293; mannitol 1 mg/ml, doxorubicin 1 μg/ml, MMS 50 μg/ml, phenformin 250 μg/ml
Method: The assay was conducted using the same cell containing sample(s) as the p53R2 Renilla Luciferase Reporter Gene and the Firefly Luciferase Bioluminescent ATP assays. The assays were performed in 96-well cluster plates.
On completion of ATP quantification, SOD was measured on each cellular sample following the SOD assay kit manufacturer's instructions. Briefly, the assay method is based on a water-soluble tetrazolium salt, WST-1 (2-(4-Iodophenyl)-3-(4-nitrophenyl)-5-(2,4-disulfophenyl)-2H-tetrazolium, monosodium salt) that produces a colourimetric formazan dye upon reduction with a superoxide anion which can be measured spectrophotometrically. The rate of the reduction with the superoxide anion is linearly related to […] xanthine oxidase (XO) activity. Thus, cellular samples (20 μl) were added to a reaction mixture (220 μl) containing WST-1 and XO and incubated for 20 mins at 37° C. Absorbance was measured at 450 nm using a 96-well microtitre plate reader.

HEK 293 cells = assay: Firefly Luciferase Bioluminescent ATP cell viability assay; assay type: cell-based, human; settings: for ATP response (cytotoxicity): phenformin 250 μg/ml, MMS 50 μg/ml, doxorubicin 1 μg/ml
Method: The assay was carried out in 96-well cluster plates on the same cell containing sample(s) as the p53R2 Renilla Luciferase Reporter Gene Assay. Traditionally bioluminescent ATP quantification methods use firefly luciferase to quantify ATP in the presence of inorganic magnesium ions and the substrate luciferin. The ATP assay described here uses a recombinant luciferase from a gene isolated from the Pennsylvania Firefly (Photuris pennsylvania). Following Renilla luciferase gene reporter activity quantification, firefly luciferase activity was measured in each well using the Cell-Titer Glo Luciferase ATP Quantification Assay Kit in accordance with the kit manufacturer's instructions. Briefly, the enzyme substrate was equilibrated to room temperature and reconstituted with the assay buffer. 100 μl of this reagent was added to cells which quenched the Renilla luciferase reaction and liberated the cellular contents by cellular lysis. […] It is based on the quantitative measurement of ATP which indicates the absolute number of metabolically active cells.

Salmonella = settings: McCann et al., 1975, PNAS 72, 5135-5139; cited from earlier work
[1] = FIG. 16, apoptosis values alone, HEK 293

SMILES | caspase 3 activities (caspase-3; [1]) | Mean Apoptotic Index (caspase-3; HEK 293) | induction of Renilla luciferase (p53R2 (RE)) | Mean Stress Index (superoxide dismutase) | ATP response (cytotoxicity) (HEK 293 cells; FIG. 10e, 8:2 transfection) | ATP response (cytotoxicity) (HEK 293 cells; FIG. 11e, 7:2 transfection) | cytotoxicity based upon ATP levels (HEK 293 cells; FIGS. 10 and 11) | genotoxicity characterization (Salmonella) | caspase 3 activities (caspase-3) | cytotoxicity based upon ATP levels (HEK 293 cells)
COc1cccc2c1C(=O)c1c(O)c3c(c(O)c1C2=O)C[C@@](O)(C(=O)CO)C[C@@H]3O[C@H]1C[C@H](N)[C@H](O)[C@H](C)O1 [Doxorubicin, doxorubicin hydrochloride] | comparable | 3.43 | significant induction | 0.96 | no reduction | no reduction | not cytotoxic | highly |  | 
OC[C@@H](O)[C@@H](O)[C@H](O)[C@H](O)CO [Mannitol, mannitol] |  | 1.04 | no induction | 1.22 |  |  |  |  |  | 
COS(C)(=O)=O [Methylmethane sulfonate, methylmethane sulfonate] |  |  | less induction |  |  |  |  | moderately | comparable | not cytotoxic
[H]/N=C(/N)N/C(=N/[H])NCCc1ccccc1 [Phenformin, phenformin hydrochloride] | comparable |  | no induction |  |  |  |  |  |  | 

From US20130045484A1, “METHODS AND KITS FOR DETERMINING THE TOXICITY OF AN AGENT” (priority 2010, published 2013)
